In test [1] the test system is Cryptococcus neoformans (H99). The test can be described thus: Broth microdilution MIC (Example 1). It counts as cell-based. The settings on record: for MIC: Cryptococcus neoformans, 37° C., read-out: MIC against Cryptococcus neoformans (H99). As for the experimental part: (§1) MICs/minimum effective concentrations (MECs) were determined for each of the novel analogs against the three major human fungal pathogens, A. fumigatus, C. neoformans, and C. albicans. […] Thus, analogs of FK506 and FK520 can tolerate up to 100-fold reduction in antifungal activity and still be considered for in vivo testing. For C. neoformans, MICs were the most uniform and ranged from 0.2 to 2 μg/mL, which is between 4- and 40-fold reduced for antifungal activity.
(§2) In vitro antifungal activities of FK506, FK520, and analogs were assessed in RPMI 1640 (Sigma-Aldrich) for all strains tested. MICs/minimum effective concentrations (MECs) for each drug were measured using modified Clinical and Laboratory Standards Institute (CLSI) M38-A2 and M27-A3 standard in vitro antifungal susceptibility protocols. Broth microdilution assays for MIC/MEC assessment were performed as described previously (see, Juvvadi P R, et al., 2019, Nat Commun 10:4275). All antifungal assays with C. neoformans were performed at 37° C. Antifungal susceptibility testing for C. albicans was performed in the presence of a uniform 1 μg/mL concentration of fluconazole to sensitize the organism to calcineurin inhibition.

Test [2] relates to Candida albicans (SC5314). The test can be described thus: Broth microdilution MIC (Example 1). It counts as cell-based. The settings on record: Candida albicans, SC5314; in the presence of 1 μg/mL fluconazole; read-out: MIC against Candida albicans (SC5314). As for the experimental part: as §1, §2
A further test relates to Aspergillus fumigatus. The test can be described thus: Broth microdilution MIC/MEC (Example 1). Type of test: cell-based. The settings on record: Aspergillus fumigatus; strain Af293; read-out: MEC against Aspergillus fumigatus (Af293). As for the experimental part:
as §1
To assess the antifungal activity against other human fungal pathogens, JH-FK-05 was selected to test against a panel of pathogenic molds and drug-resistant A. fumigatus strains (Table 4). JH-FK-05 registered MECs as low as 1 μg/mL for some of these highly recalcitrant species, such as Mucor circinelloides, Rhizopus oryzae, and pan azole-resistant A. fumigatus (strain F14946).
as §2

For test [3], the system named is IL-2 expression in primary murine CD4+ T cells. The test can be described thus: In vitro immunosuppressive activity, IL-2 expression (Example 4). Type of test: cell-based, mouse. The settings on record: for IC50: Mus musculus, CD4+ T. As for the experimental part:
Spleen and lymph nodes were collected from C57BL/6 mice and homogenized through a 40 μm filter. Pan-CD4^+ T cells were enriched using MagniSort Mouse CD4 T cell Kit (eBioscience) according to the manufacturer's protocol. Thereafter, CD4+CD25−CD44lo CD62Lhi naïve T cells were FACS-sorted. The naïve CD4+ T cells were grown in Iscove's Modified Dulbecco's Medium (IMDM) supplemented with glutamine, penicillin, streptomycin, gentamicin, 2-mercaptoethanol, and 10% FBS. Cells were then cultured on anti-hamster IgG coated plates in the presence of hamster anti-CD3 epsilon and anti-CD28 antibodies (BD Biosciences), neutralizing anti-IL-4 antibody (eBioscience), recombinant IL-12 (10 ng/mL), and recombinant IL-2 (50 U/mL) for 72 h. During this period, cells were grown in the presence of 2× serially diluted FK506, FK520, or analog suspended in DMSO for 72 h. During the last 4 h of culture, phorbol 12-myristate 13-acetate (PMA; Sigma), ionomycin (Sigma), and GolgiStop (BD Biosciences) were added to the culture to facilitate detection of intracellular cytokines via flow cytometry.
Live cells were stained with FITC-conjugated anti-CD4 antibody (eBioscience) and Fixable Viability Dye eFluor 506 (eBioscience) on ice, followed by fixation and permeabilization using the Foxp3 Transcription Factor Staining Kit (eBioscience). Intracellular staining was performed at room temperature using PE-conjugated anti-IL-2 antibody (eBioscience), followed by analysis with a BD LSRFortessa X-20 flow cytometer.

In a further test the test system is C. neoformans. The test can be described thus: MIC assay (Example 4). It counts as cell-based, Cryptococcus neoformans. Particulars: for MIC: Cryptococcus neoformans. As for the experimental part:
Both JH-FK-10 and JH-FK-11 maintained in vitro antifungal activity against C. neoformans with MICs of 0.8 and 1.6 μg/mL, respectively (Table 11).
In vitro antifungal activity of FK506, FK520, and analogs was assessed in RPMI 1640 (Sigma-Aldrich) for all strains tested. Minimum inhibitory concentrations (MIC) for each drug were measured using modified Clinical and Laboratory Standards Institute (CLSI) M38-A2 and M27-A3 standard in vitro antifungal susceptibility protocols. Broth microdilution assays for MIC assessment were performed as previously described. All antifungal assays with C. neoformans were performed at 37° C.

The subject of test [4] is C. neoformans growth versus IL-2 in murine T cells. The test can be described thus: Therapeutic index score (immunosuppressive fold change to antifungal fold change relative to FK506). More on the design: species or system Cryptococcus neoformans; mouse. The settings on record: Table 12, Example 4; FK506 = 1.0. An excerpt:
To assess the therapeutic potential for these compounds, it was important to develop an approach to score and rank them based on antifungal and immunosuppressive activities. The therapeutic index score (TIscore) is a ratio of the immunosuppressive fold change to the antifungal fold change, with all values relative to the baseline FK506 activity (FIG. 6B). A TIscore of >1.0 indicates an increase in fungal specificity because the fold change of the immunosuppressive reduction is greater than the antifungal activity reduction. As an example, JH-FK-05 is 20-fold reduced for antifungal activity but about 180-fold reduced for immunosuppression. Therefore, the TIscore of JH-FK-05 is 9.1 (TIscore=182/20). The top two analogs were JH-FK-02 (TIscore=9.7) and JH-FK-05 (TIscore=9.1). Due to the similar TIscore, JH-FK-05 was prioritized to advance to animal trials on the merit of more pronounced antifungal activity compared to JH-FK-02.
Based on the in vitro fungal and mammalian calcineurin inhibition data, the panel of FK520 analogs was assessed and ranked. Therapeutic index (TI) scores were used to quantify the effects of structural modification on the compounds (Table 8). Therapeutic index scores were calculated for each analog as the ratio of relative change in immunosuppressive and antifungal activities compared to FK506 as previously utilized (see, I-Toy M J, et at. 2022. mBio 13:e0104922). This ratio of therapeutic benefit and host toxicity, or fungal and mammalian calcineurin inhibition, allowed us to quantify and rank these analogs. […] This is the greatest TI found within the library and allowed us to identify JH-FK-08 as a lead candidate for an in vivo study. Tolerability of JH-FK-08 was assessed by monitoring animal responses to drug dosing across 14 days, including changes in weight, fur condition, and behavior. A maximum dose of 40 mg/kg was tested in once a day dosing, and due to solubility limitations, the tolerability of JH-FK-08 at 60 and 80 mg/kg total daily doses was assessed by dosing two equal doses per day (FIG. 14). […] It should be noted that analogs JH-FK-12 and JH-FK-23 are also promising candidates with respective Tis of 24.7 and 24.5.

Values after ≈ are worked out from the molar mass of the structure shown. “Also recorded” adds a separate entry of the source. Like-named read-outs stand apart in the source and are kept apart here.

Turning to `C=CC[C@@H]1/C=C(\C)C[C@H](C)C[C@H](OC)[C@H]2O[C@@](O)(C(=O)C(=O)N3CCCC[C@H]3C(=O)O[C@H](/C(C)=C/[C@@H]3CC[C@@H](O)[C@H](OC)C3)[C@H](C)[C@@H](O)CC1=NNC(=O)CN(C)C)[C@H](C)C[C@@H]2OC` [JH-FK-04], the MIC in test [1] is 2 µg/mL (≈ 2.21 µM); in test [2], 6.25 µg/mL. Moreover, the minimal effective concentration with Aspergillus fumigatus was found to be 2 µg/mL.

Regarding `CC[C@@H]1/C=C(\C)C(O)[C@H](C)C[C@H](OC)[C@H]2O[C@@](O)(C(=O)C(=O)N3CCCC[C@H]3C(=O)O[C@H](/C(C)=C/C3CC[C@@H](O)[C@H](OC)C3)[C@H](C)[C@@H](O)C/C1=N/NC(C)=O)[C@H](C)C[C@@H]2OC` (some centres unmarked) [JH-FK-18], the “IL-2 production” value in test [3] (200 nM) is “no changes in IL-2 production”. Also, the IC50 in test [3] (Table 13) was over 200 nM. The “C. neoformans MIC” value in the test with C. neoformans (37° C., Table 13) was over 50 µg/mL. In the test on C. neoformans (37° C., Table 13, read-out: C. neoformans MIC), the MIC was over 50 µg/mL. In addition, the “antifungal activity” value with C. neoformans (up to a maximum concentration of 50 μg/mL) was “no detectable antifungal or immunosuppressive activity; also recorded: no detectable biological activity”.

Turning to `CC[C@@H]1/C=C(\C)C(O)[C@H](C)C[C@H](OC)[C@H]2O[C@@](O)(C(=O)C(=O)N3CCCC[C@H]3C(=O)O[C@H](/C(C)=C/[C@@H]3CC[C@@H](O)[C@H](OC)C3)[C@H](C)[C@@H](O)CC1=O)[C@H](C)C[C@@H]2OC` (some centres unmarked) [JH-FK-10], in test [4], the “Therapeutic Index Score” value is on record as 3.2. Also, the “immunosuppressive activity” value in test [3] is reported as “detectable immunosuppressive activities”. Further, it took 5.7 nM to reach half-maximal inhibition in test [3] (Table 12) (IC50). Moreover, the MIC came out at 0.8 µg/mL (≈ 0.99 µM) with C. neoformans (37° C., Table 11, read-out: C. neoformans MIC) and 0.8 µg/mL (≈ 0.99 µM) in the test with C. neoformans (read-out: C. neoformans MIC, 37° C., Table 12).

Regarding `C=CC[C@@H]1/C=C(\C)C[C@H](C)C[C@H](OC)[C@H]2O[C@@](O)(C(=O)C(=O)N3CCCC[C@H]3C(=O)O[C@H](/C(C)=C/[C@@H]3CC[C@@H](O)[C@H](OC)C3)[C@H](C)[C@@H](O)C/C1=N/NC(=O)c1ccccc1)[C@H](C)C[C@@H]2OC` [JH-FK-03], the values for the MIC in test [1] and in test [2] were 1 µg/mL (≈ 1.08 µM) and 0.8 µg/mL, respectively. Also, in the test with Aspergillus fumigatus, the minimal effective concentration is 1 µg/mL.

As to `CC[C@@H]1/C=C(\C)C[C@H](C)C[C@H](OC)[C@H]2O[C@@](O)(C(=O)C(=O)N3CCCC[C@H]3C(=O)O[C@H](/C(C)=C/[C@@H]3CC[C@@H](O)[C@H](OC)C3)[C@H](C)[C@@H](O)C/C1=N/NC(=O)C(F)(F)F)[C@H](C)C[C@@H]2OC` [JH-FK-07], the “broad-spectrum antifungal activity / MIC ranking” value in test [1] (C. neoformans, C. albicans, A. fumigatus) was “maintained high levels of broad-spectrum antifungal activity across the three species; also recorded: had the lowest MICs for both C. neoformans and C. albicans”. Moreover, the results for the MIC in test [1] and in test [2] were 0.2 µg/mL (≈ 0.222 µM) and 0.2 µg/mL, respectively. Further, in the test on Aspergillus fumigatus, the minimal effective concentration was found to be 1.25 µg/mL.

As for `C=CC[C@@H]1/C=C(\C)C[C@H](C)C[C@H](OC)[C@H]2O[C@@](O)(C(=O)C(=O)N3CCCC[C@H]3C(=O)O[C@H](/C(C)=C/[C@@H]3CC[C@@H](O)[C@H](OC)C3)[C@H](C)[C@@H](O)C/C1=N/NC(C)=O)[C@H](C)C[C@@H]2OC` [JH-FK-01], the MIC in test [1] came out at 1 µg/mL (≈ 1.16 µM); in test [2], 0.4 µg/mL. In addition, in the test with Aspergillus fumigatus, the minimal effective concentration worked out at 1 µg/mL.

(Values after patent US20260315446A1, “ANTIFUNGAL COMPOUNDS AND USES THEREOF” (priority 2023, published 2026).)
